# Test results taken from patent US20040096427A1, “Oral gram(+) bacteria and glutamine composition for prevention and/or treatment of gastro-intestinal dysfunctions including inflammation in the gastro-intestinal tract, neonatal necrotizing enterocolitis (nec) and bacterial sepsis” (priority 2003, published 2004).
# Experiments:
# E. coli [1] = details: cited from earlier work; for adherence and translocation of Gram (−) organisms such as E. coli: Caco-2 cell culture model, U.S. Pat. No. 6,132,710
# E. coli [2] = details: cited from earlier work; for tissue injury and inflammatory cell infiltration: rabbit ileal loop model, U.S. Pat. No. 6,132,710
# E. coli [3] = test: Caco-2 cell transwell system, E. coli translocation (transcytosis); type: cell-based; details: inventors' determination
# Protocol: Caco-2 cells derived from human adenocarcinoma cells which show all the morphological and functional characteristics of mature small intestinal epithelial cells after differentiation were employed in a number of experimental systems. Panigrahi et al., Development of an in vitro model for study of non-01 Vibrio cholerae virulence using Caco-2 cells, Infect. Immun., 58:3415-3424 (1990). Caco-2 cells were grown in DMEM supplemented with 1% nonessential amino acids, 1% sodium pyruvate, 10% fetal calf serum, 100 U penicillin and 100 μg of streptomycin/mL in a 5% CO2 atmosphere at 37° C. For transcytosis studies, 0.2×10^6 cells in 0.3 mL medium were seeded on the apical side of 0.6 cm^2 polycarbonate transwell filters/clusters (Costar, Cambridge, Mass.). […]
# A Caco-2 cell transwell system was used in accordance with Panigrahi et al. (1990) and Panigrahi et al. (1994) to grow cells on a membrane allowing the measurement of bacteria that translocate. Briefly, Caco-2 cells were grown on polycarbonate filters in transwell cluster and TEER (trans-epithelial electrical resistance) was measured before and after treatment (1) with E. coli alone, (2) in a system deprived of glutamine, (3) in a system deprived of glutamine and later replenished with glutamine, and (4) in a system deprived of glutamine and treated with a Lactobacillus strain ATCC 202195 and glutamine composition. […]
# E. coli [4] = test: E. coli adherence to gastro-intestinal mucosa; details: inventors' determination
compound,measurement,setting,value
Lactobacillus acidophilus,adherence and translocation of Gram (−) organisms such as E. coli,E. coli [1],capable of blocking
same,tissue injury and inflammatory cell infiltration,E. coli [2],reduced
NC(=O)CC[C@H](N)C(=O)O [glutamine],effect on translocation of E. coli across mucosal layers,E. coli [3],prevents translocation
same,effect on E. coli adherence to gastro-intestinal mucosa,E. coli [4],does not have an effect
same,bacterial translocation,"E. coli [1]; glutamine supplied from the luminal (apical) side, U.S. Pat. No. 5,981,590",reduce bacterial translocation
same,protection against Gram (−) bacteria-induced necrotizing enterocolitis,"E. coli [2]; instillation of rabbit ileal loops with glutamine, U.S. Pat. No. 5,981,590",protects
Lactobacillus,effect on E. coli adherence to gastro-intestinal mucosa,E. coli [4],prevents initial steps
Lactobacillus plantarum,adherence and translocation of Gram (−) organisms such as E. coli,E. coli [1],capable of blocking
same,tissue injury and inflammatory cell infiltration,E. coli [2],reduced
